{"source": "patent US8207188B2", "about": "“Treatment of diseases modulated by a H4 receptor agonist” (priority 2006, dated 2012)", "key": {"recombinant human HDC": {"target": "T1, recombinant human HDC (Homo sapiens, UniProt P19113)", "T1 construct": "The DNA encoding for residues 1-512 of human HDC; GST (fusion partner of the pGEX-6P-1 vector) (N, cleaved yes); made in house; host or cells: Escherichia coli BL21(DE3)pLysS", "T1 sequence (P19113 1-512)": "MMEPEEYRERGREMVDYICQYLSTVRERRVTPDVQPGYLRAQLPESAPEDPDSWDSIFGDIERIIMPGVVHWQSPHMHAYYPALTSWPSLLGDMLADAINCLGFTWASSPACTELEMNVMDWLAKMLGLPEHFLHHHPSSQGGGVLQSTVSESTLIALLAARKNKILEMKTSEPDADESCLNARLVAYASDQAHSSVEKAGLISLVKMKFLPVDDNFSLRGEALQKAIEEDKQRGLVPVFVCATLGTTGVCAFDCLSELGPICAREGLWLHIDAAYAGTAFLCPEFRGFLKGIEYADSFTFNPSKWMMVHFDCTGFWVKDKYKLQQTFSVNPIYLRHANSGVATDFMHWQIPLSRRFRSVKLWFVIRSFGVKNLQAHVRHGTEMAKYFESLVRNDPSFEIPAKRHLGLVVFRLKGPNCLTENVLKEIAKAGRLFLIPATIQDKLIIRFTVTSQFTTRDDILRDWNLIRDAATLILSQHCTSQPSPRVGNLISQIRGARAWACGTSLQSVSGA", "test": "Human-HDC activity determination (14CO2 from L-[U-14C]histidine)", "format": "biochemical", "details": "10 μM final", "from_the_text": "The DNA encoding for residues 1-512 of human HDC was subcloned in the pGEX-6P-1 vector (GE-Healthcare). The recombinant plasmid transformed into the Escherichia coli BL21(DE3)pLysS strain. Transformed cultures were induced to express the HDC 1/512, which was purified by affinity chromatography using Glutathione sepharose (GE-Healthcare). 1/512 HDC was released from the fusion protein bound to the affinity chromatography support by digestion with the Pre-Scission™ protease (GE-Healthcare). The final preparations were dissolved in 50 mM potassium phosphate, 0.1 mM PLP, pH 7.0. Purity of the HDC 1/512 construct was checked by Coomassie blue staining and Western blotting, and was higher than 95% in the final preparations.\nHDC activity was assayed, as described in Engel at al. (1996) Biochem J. 320: 365-368, by measuring the production of ^14CO2 from L-[U-^14C]histidine (GE-Healthcare) in a mixture containing 0.2 mM dithiothreitol, 10 μM PLP, 10 mg/ml poly(ethylene glycol)-300, 100 mM potassium phosphate, pH 6.8, and purified protein in a total volume of 100 μL. When recombinant HDC was used, the concentration of L[U-^14C]histidine was 13.3 μM (with ⅓ isotopic dilution). The released ^14CO2 was measured as previously described for HDC activity determinations (Urdiales et al. (1992) FEBS Lett. 305, 260-264).\n10 μM concentration of each isomer, A and B (A corresponds to the isolated pure isomer eluting at 5.9 minutes, B corresponds to the isolated pure isomer eluting at 7.1 minutes of the chromatogram shown in FIG. 4 (bottom)) and their corresponding racemic mixture (starting material prior to separating the individual isomers, indicated as A+B) along with 4 μg of recombinant human HDC were used to asses the inhibitory effect of each isomer and the mixture on the enzymatic conversion of histidine to histamine. Results are presented as means of duplicates samples."}, "[1]": {"tested_on": "human TF1 cells that express H4R", "test": "TF1 cell proliferation assay (GM-CSF promoted)", "format": "cell-based", "description": "Tritoqualine was tested on a cell proliferation assay using human TF1 cells that express H4R.\nTF1 cell proliferation is promoted using granulocyte/macrophage colony-stimulating factor (GM-CSF). In this cell proliferation model H4R agonists inhibit cell proliferation. Clobenpropit (CB), a known H4R agonist at a dose of 10^−5M (10 μM) was used as a known cell proliferation inhibition control. […] Each experiment used 100,000 TF1 cells/mL incubated for three days with GM-CSF (10 ng/mL). After addition of TRQ in the range of 10^−5M (10 μM) to 10^−7 M (0.1 μM), and incubation for 3 days, cell proliferation was assessed and compared to that of 10 μM CB."}, "[2]": {"test": "Spirometry parameter FEV1 in COPD patients", "format": "in vivo, human", "parameters": "T0 (initial visit) FEV1: unit not given here", "description": "At the initial visit to the physician (T0), the patients were examined and the spirometry parameter FEV1 was recorded. Tritoqualine 200 mg/day were added to the patient's existing drug therapy. […] During each visit the patient's overall health and the FEV1 parameter was assessed by spirometry. […]"}}, "note": "“And” between values parts separate entries of the source, which are not always exact repeats. Equal entries are not always repeated."}
{"compound": "CCOc1c(N)c2c(c(OCC)c1OCC)C(C1c3c(cc4c(c3OC)OCO4)CCN1C)OC2=O", "note": "(racemic) [Tritoqualine, 7-Amino-4,5,6-triethoxy-3-(5,6,7,8-tetrahydro-4-methoxy-6-methyl-1,3-dioxolo[4,5-g]isoquinolin-5-yl) phthalide]", "values": [{"measurement": "inhibition at 10 µM", "setting": "recombinant human HDC", "result": 17.5, "unit": "%"}, {"measurement": "DPM", "setting": "recombinant human HDC; 4 μg recombinant human HDC, means of duplicates, control 12340", "result": 10176, "unit": "DPM"}, {"measurement": "Activity", "setting": "recombinant human HDC; control 0.35", "result": 0.29, "unit": "µmol/h"}, {"measurement": "Specific activity", "setting": "recombinant human HDC; control 87.00", "result": 71.74, "unit": "μmole/h · mg prot"}, {"measurement": "remaining activity at 10 µM", "setting": "recombinant human HDC; read-out: % of control", "result": 82.5, "unit": "%"}, {"measurement": "inhibition of cell proliferation", "setting": "[1]; 0.1 μM", "result": "no inhibition of cell proliferation"}, {"measurement": "inhibition at 10 µM", "setting": "[1]; Homo sapiens, TF-1, 72 h, 10 μM, 3 days, three separate assays (n=3)", "result": 49, "unit": "%"}, {"measurement": "inhibition at 1 µM", "setting": "[1]; Homo sapiens, TF-1, 1 μM", "result": 18, "unit": "%"}, {"measurement": "T0 (initial visit) FEV1", "setting": "[2]; Example 12, 13 COPD patients, one line per patient, baseline before Tritoqualine", "result": "1.00 (2×) and 2.39 and 1.86 (2×) and 1.60 and 1.53 and 1.64 and 1.32 and 0.82 and 0.58 and 2.28 and 1.30"}, {"measurement": "improvement of FEV1 from visit T0 to T1 (paired t-test)", "setting": "[2]; Example 12, 13 patients, P=0.0012", "result": "statistically significant improvement"}, {"measurement": "Mean, Visit T1", "setting": "[2]; Example 12, N 13, 6-8 weeks of Tritoqualine 200 mg/day, FEV1 relative to expected normal value", "result": 77.69}, {"measurement": "Mean, Visit T0", "setting": "[2]; Example 12, N 13, baseline, FEV1 relative to expected normal value", "result": 65.3}, {"measurement": "FEV1 as percent of expected normal value", "setting": "[2]; Example 12, per patient, 6-8 weeks of Tritoqualine 200 mg/day", "result": "50.76% and 97.74% and 85.50% and 71.77% and 92.96% and 72.24% and 87.41% and 64.90% and 68.42% and 43.53% and 88.24% and 88.89% and 105.12%"}, {"measurement": "FEV1 as percent of expected normal value", "setting": "[2]; Example 12, per patient, baseline", "result": "50.76% and 89.85% and 47.33% and 76.56% and 71.83% and 62.36% and 74.07% and 53.88% and 53.95% and 34.12% and 83.82% and 72.22% and 86.51%"}, {"measurement": "T2 (6-8 weeks follow-up visit) FEV1 normalized", "setting": "[2]; Example 12, per patient, Tritoqualine 200 mg/day added to existing therapy", "result": "1.00 and 2.60 and 3.36 and 1.50 and 1.98 and 1.90 and 1.18 and 1.59 and 1.04 and 0.74 and 2.40 and 1.60 and 2.26"}]}
